Several values for one entry are separate records, joined by “and”; a condition that tells them apart may be missing. Equal entries are not always repeated. Entries after “also recorded” stand apart in the source; their conditions may differ.
Experiments:
[1] = test system: experimental liver metastasis; test: Mouse model of experimental liver metastasis; format: in vivo; conditions: prophylactic administration
[2] = test system: pulmonary fibrosis induced by bleomycin; test: Bleomycin-induced pulmonary fibrosis model (INF-01): lung histology scoring; format: in vivo, C57BL/6 mice; design: key to Chronic Inflammation (0-5): 0: None present; 1: Rare foci; minimal; 2: Scattered aggregates or mild diffuse inflammation; 3: Numerous aggregates or moderate diffuse inflammation; 4: More marked inflammation either scattered or diffuse; 5: More severe inflammation either scattered diffuse inflammation; conditions: for pulmonary fibrosis and associated inflammation compared to the vehicle control group: 40 mg/kg, not statistically significant (Kruskal-Wallis); for mean interstitial fibrosis foci count: foci that fill a 10x objective field; for mean chronic inflammation score / mean interstitial fibrosis score: scale 0-5; for Chronic Inflammation (0-5) / Interstitial Fibrosis (0-5) / Number of Foci of Interstitial Fibrosis that Fill a 10x Objective Field: individual animals
Method: (§1) Thirty-two C57/B6 mice were prospectively randomized into four equally sized groups of eight animals each. An additional four mice served as naïve controls. Pulmonary fibrosis was induced with a single dose of bleomycin (4 U/kg) given intra-nasally on Day 0. Animals' activity and weight were evaluated daily. IPI 926 or vehicle was given every other day from 10 days prior to bleomycin until sacrifice on Day 30, or IPI926 was given beginning on either Day 0 or Day 14 on alternate days until the end of the study. At the end of the study on Day 30, all mice were euthanized and bronchiolar lavage performed to enable an evaluation of the inflammatory infiltrate in the lungs and collect the fluid for possible cytokine evaluation. One lung from each animal was collected for histology, while the other was snap frozen and retained for possible additional analyses.
(§2) Bleomycin, a glycopeptides anti-cancer agent originally isolated from Streptomyces verticillus is currently approved for use against squamous cell carcinoma, testicular cancer and Hodgkin's disease. Pulmonary fibrosis is a significant toxicity associated with the use of bleomycin, occurring in a significant percentage of patients undergoing bleomycin therapy. In C57/B6 mice, pulmonary inflammation and subsequent fibrosis is reproducible following bleomycin treatment, and the severity of pulmonary fibrosis is dose-dependent with higher doses being used to evaluate short term inflammatory effects, while lower doses are used to study the longer term impact of pulmonary fibrosis. In this model, mice are given 4 U/kg of bleomycin intranasally and pulmonary fibrosis is evaluated histologically 30 days after the administration of the bleomycin.
Each lung sample was trimmed into 1-3 sections. Tissues were embedded in paraffin and sectioned at approximately 5 microns. Two slides for each lung were stained. One was stained with hematoxylin and eosin (H&E) and another serial section was stained with a trichrome stain. All slides were examined by a board-certified veterinary pathologist. Tissues were scored for chronic inflammation and interstitial fibrosis according to the criteria in Table 5 below. In addition the number of foci of interstitial fibrosis in the lung that filled a 10× objective field (100× total magnification) were counted and reported. Statistical analysis was performed with GraphPad Prism version 4.03 and included a Kruskal-Walis test followed by a Dunn's post-test comparing all groups to each other. Individual animal findings are listed herein in the Tables below.
Lungs were taken at sacrifice on Day 30 for analysis. Lungs were removed and partitioned in two halves. On half was fixed in 10% formalin, before embedding and sectioning. Slides made from each sample were stained with H&E or Masson's Trichrome. The other half of lung sample were snap-frozen in liquid nitrogen and stored at −80 C for future analysis of mRNA by QT-PCR and/or proteomic analysis.

[3] = test system: pancreatic adenocarcinoma; test: KPC mouse model of pancreatic adenocarcinoma / pancreatic animal models; format: in vivo
[4] = test system: pulmonary fibrosis induced by bleomycin; test: Example 2B bleomycin-induced pulmonary fibrosis: hydroxyproline; format: in vivo, C57BL/6 mice; conditions: treatment begun on the day of bleomycin insult
Method: (§3) Experimental conditions used in this study are similar to the ones described in Example 2A. […] Mice were treated with bleomycin (BLM) on day 0 and controls received saline (SAL).

[5] = test system: white blood cells in bronchiolar lavage fluid; test: Bleomycin-induced pulmonary fibrosis model (INF-01): bronchiolar lavage fluid cell counts; format: in vivo, C57BL/6 mice; design: Bronchiolar lavage fluid counts WBC: unit not given here; conditions: for Bronchiolar lavage fluid counts % lymph / Bronchiolar lavage fluid counts % monos / Bronchiolar lavage fluid counts % neutro / Bronchiolar lavage fluid counts WBC: individual animals
Method: as §1
At necropsy, the inflammatory infiltrated was evaluated by counting cells in the fluid collected following bronchiolar lavage. Bronchiolar lavage was performed by inserting a 20-gauge cannula into the trachea, which was tied in place with suture. The cannula was attached to a 1 mL syringe which was used to deliver and then recover 1 mL of sterile PBS. This fluid was then centrifuged to recover the cells and the resulting fluid saved for potential evaluation. Cell counts were performed on a HTI PCE-90vet automated veterinary hematology analyzer.
At sacrifice, BAL fluids were collected from all animals. The cells from these fluids were evaluated for differential white count. The fluids were retained for cytokine analysis.

[6] = Bleomycin-induced pulmonary fibrosis model in C57BL/6 mice (study INF-01): body weight and survival; format: in vivo
Method: as §1, §2
Oral administration by gavage QOD for 30 days 40 mg/kg Administered volume varies by weight
Thirty-six (36) female C57B1/6 mice (Charles River Laboratories), aged 5 to 6 weeks, with a mean body weight of 19.7 g at study commencement, were used. Animals were individually numbered using an ear punch and housed in groups of eight animals per cage. Animals were acclimatized for 3 days prior to study commencement. During acclimatization, the animals were observed daily in order to reject animals that presented in poor condition.
Pulmonary fibrosis was induced with a single intra-nasal administration of bleomycin at 4 U/kg in 25 μL of saline. Animals were anesthetized by breathing isoflurane in a closed chamber (2-3% isoflurane 200-300 mls oxygen) to effect. When non-responsive to toe pinch, each animal was held in one hand in an upright position and the bleomycin placed in nares and the droplet watched until inhaled. […]
Animals were weighed and evaluated for respiratory distress daily. […]
All animals were weighed and evaluated for respiratory distress daily throughout this study. […]

[7] = test system: Sonic Hedgehog (SHh) and Gli-1; test: Immunohistochemistry of lung samples from the bleomycin lung fibrosis study for SHh and Gli-1; format: in vivo, C57BL/6 mice
Method: I. IHC protocol to detect Gli1 on murine and human tissues: Rabbit anti-mouse Gli1 (Novus Biologicals NBP1-03294), Whole Rabit IgG2 Positive control: RMS, BCC
• 1. Dilute the Gli1, 1:200, in DaVinci Green Diluent. Add ratIgG2a, at same dilution, to the negative controls. Add a volume of 300 μl to each slide. • 2. Incubate for 1.5 hours at room temperature.
Rabbit anti-human SHh (Abcam# ab53281). Isotype control: Whole Rabbit IgG Positive control: Pancreatic xenograft Secondary: Rabbit-on-Rodent Polymer (Biocare Medical RMR622) for xenografts or Mach 2 (Biocare Medical RHRP520) for human tissue Wash buffer: PBS+0.5% Tween Citrate Retrieval buffer DaVinci Green Primary Ab diluent (Biocrae Medical PD900) DAB Enhancer (Zymed Cat. No. 00-2021)
• 1. Dilute the SHH, 1:2000 (optimized on the DAKO autostainer), in DaVinci Green Diluent. Add RabbitIgG, at same dilution, to the negative controls. Add a volume of 300 μl to each slide. • 2. Incubate for 90 minutes at room temperature.

[8] = Example 2B bleomycin-induced pulmonary fibrosis: body weight and survival; format: in vivo, C57BL/6 mice
Method: as §3
The effects of IPI-926 in body weight and survival that accompany bleomycin insult are shown in FIGS. 15 and 16, respectively.

[9] = Group 2: Qod, Day −10 to Day 30
[10] = all three treatments, Day-10 to Day 30 greatest effect
[11] = groups Day 0 to 30 or Day 14 to 30
[12] = Group 3: Qod, Day 0 to Day 30, individual animals

CC1=C2C[C@H]3[C@@H](CC[C@@H]4C[C@H](NS(C)(=O)=O)CC[C@@]43C)[C@@H]2CC[C@@]2(C1)O[C@@H]1C[C@H](C)CN[C@H]1[C@H]2C [IPI-926]
metastatic spread and survival [1]: dramatic effects on metastatic spread and survival
pulmonary fibrosis and associated inflammation compared to the vehicle control group [2]: reduction in pulmonary fibrosis and associated inflammation
pulmonary fibrosis and associated inflammation compared to the vehicle control group ([2]; listed as IPI926): effective in reducing the histological features of bleomycin induced pulmonary fibrosis
mean interstitial fibrosis foci count ([2]; Day −10 to Day 30): 2.1
mean chronic inflammation score ([2]; Day −10 to Day 30): 1.0
mean interstitial fibrosis score ([2]; Day −10 to Day 30): 1.0
mean interstitial fibrosis foci count ([2]; Days 0 to 30): 3.4
mean chronic inflammation score ([2]; Days 0 to 30): 1.1
mean interstitial fibrosis score ([2]; Days 0 to 30): 1.1
mean interstitial fibrosis foci count ([2]; Days 14 to 30): 5.9
mean chronic inflammation score ([2]; Days 14 to 30): 1.6
mean interstitial fibrosis score ([2]; Days 14 to 30): 1.6
Chronic Inflammation (0-5) [2, 9]: 1
Interstitial Fibrosis (0-5) [2, 9]: 1 (1-6 foci that fill a 10x objective field)
Number of Foci of Interstitial Fibrosis that Fill a 10x Objective Field [2, 9]: 2 (2×) and 1 (3×) and 4 (2×)
Chronic Inflammation (0-5) ([2]; Group 3: Qod, Day 0 to Day 30): 1 (7×) and 2
Interstitial Fibrosis (0-5) ([2]; Group 3: Qod, Day 0 to Day 30): 1 (1-6 foci that fill a 10x objective field) (7×) and 2 (7-12 foci that fill a 10x objective field)
Number of Foci of Interstitial Fibrosis that Fill a 10x Objective Field ([2]; Group 3: Qod, Day 0 to Day 30): 2 (3×) and 10 and 1 (2×) and 4 and 5
Chronic Inflammation (0-5) ([2]; Group 4: Qod, Day 14 to Day 30): 1 (5×) and 3 (2×) and 2
Interstitial Fibrosis (0-5) ([2]; Group 4: Qod, Day 14 to Day 30): 1 (1-6 foci that fill a 10x objective field) (5×) and 3 (13-18 foci that fill a 10x objective field) (2×) and 2 (7-12 foci that fill a 10x objective field)
Number of Foci of Interstitial Fibrosis that Fill a 10x Objective Field ([2]; Group 4: Qod, Day 14 to Day 30): 2 (4×) and 14 and 17 and 7 and 1
Chronic Inflammation Scores compared to Vehicle (FIG. 7) ([2]; all three treatments, Day 0 to Day 30 greatest effect): reduce inflammation compared to the Vehicle control group
Interstitial Fibrosis Scores compared to Vehicle (FIG. 8) [2, 10]: reduce inflammation compared to the Vehicle control group
number of foci of interstitial fibrosis compared to Vehicle (FIG. 9) [2, 10]: reduce inflammation compared to the Vehicle control group
amount of lung fibrosis induced by bleomycin ([2]; d=−10, Mann-Whitney test, p<0.05): decreases the amount of lung fibrosis induced by bleomycin in a statistically significant manner
desmoplastic infiltration ([3]; KPC mouse model): inhibition of desmoplastic infiltration
metastasis ([3]; KPC mouse model): decreased metastasis
survival ([3]; KPC mouse model): increased survival
desmoplastic component ([3]; pancreatic animal models): dramatic effect on the desmoplastic component
fibrosis as ug of hydroxproline per g of animal body weight [4]: reduces the fibrosis caused by bleomycin
mean lymphocytes in bronchiolar lavage fluid ([5]; Day −10 to 30): 41%
mean monocytes in bronchiolar lavage fluid ([5]; Day −10 to 30): 1.5%
mean neutrophils in bronchiolar lavage fluid ([5]; Day −10 to 30): 48%
mean WBC count in bronchiolar lavage fluid ([5]; Day −10 to Day 30): 1.53 ×10^6 cells/μL
mean WBC count in bronchiolar lavage fluid ([5]; Days 0-30): 1.09 ×10^6 cells/μL
mean WBC count in bronchiolar lavage fluid ([5]; Days 14-20 (so in the source)): 0.79 ×10^6 cells/μL
Bronchiolar lavage fluid counts % lymph [5, 9]: 43% and 44% (2×) and 41% and 26% and 46%
Bronchiolar lavage fluid counts % monos [5, 9]: 4% (2×) and 6% (2×) and 8% and 3%
Bronchiolar lavage fluid counts % neutro [5, 9]: 43% and 41% and 48% and 60% and 49% and 47%
Bronchiolar lavage fluid counts WBC [5, 9]: 0.6 and 1.3 and 2.1 (2×) and 1.9 and 1.2
Bronchiolar lavage fluid counts % lymph ([5]; Group 3: Qod, Day 0 to Day 30): 41% and 45% and 46% (2×) and 40% and 56% and 51% and 49%
Bronchiolar lavage fluid counts % monos ([5]; Group 3: Qod, Day 0 to Day 30): 4% (4×) and 3% (2×) and 7% and 5%
Bronchiolar lavage fluid counts % neutro ([5]; Group 3: Qod, Day 0 to Day 30): 43% and 47% and 44% and 52% and 41% and 34% and 42% and 45%
Bronchiolar lavage fluid counts WBC ([5]; Group 3: Qod, Day 0 to Day 30): 1.3 (3×) and 0.1 and 0.9 and 1.5 and 1.1 and 1.2
Bronchiolar lavage fluid counts % lymph ([5]; Group 4: Qod, Day 14 to Day 30): 51% and 53% and 54% and 42% and 55% and 46% and 45% and 49%
Bronchiolar lavage fluid counts % monos ([5]; Group 4: Qod, Day 14 to Day 30): 3% (3×) and 9% and 4% and 1% and 2% and 11%
Bronchiolar lavage fluid counts % neutro ([5]; Group 4: Qod, Day 14 to Day 30): 42% and 28% and 41% and 50% and 35% and 49% and 43% and 45%
Bronchiolar lavage fluid counts WBC ([5]; Group 4: Qod, Day 14 to Day 30): 1.1 (2×) and 0.9 (3×) and 0.4 (2×) and 0.6
white cell count in bronchiolar lavage ([5]; all groups treated, greatest in Day 14 to Day 30 group): reductions in the number of white cells in the bronchiolar lavage; also recorded: Reductions in white cell count
mean lymphocytes in bronchiolar lavage fluid [5, 11]: 47-49%
mean neutrophils in bronchiolar lavage fluid [5, 11]: 42-44%
Daily Animal Weights, Day 14 [6, 12]: 21.09
Daily Animal Weights, Day 27 [6, 12]: 21.09
animals that died or were euthanized ([6]; group treated from Day −10 to Day 30): sac'd
weight gain relative to vehicle controls ([6]; mouse, in vivo): reductions in weight gain relative to vehicle controls
SHh immunoreactivity ([7]; d=−10, d=0, d=14): only IPI-926 administered at d=−10 appeared to have an effect on this signal
Gli-1 immunoreactivity in comparison to vehicle treatment ([7]; d=−10, d=0 and d=14): appears to decrease the Gli-1 immunoreactivity
animal death / survival after bleomycin administration [8]: significantly abrogates the increase in animal death
body weight loss that accompanies bleomycin insult [8]: reduces the dramatic loss in body weight
